Results published in US8895260B2, “Screening assay for ribosomal antibiotics” (priority 2006, dated 2014).

Experiments:
Type in all cases: cell-based, Mycobacterium smegmatis
[1] = tested on: bacterial hybrid ribosomes carrying Homo sapiens mitochondrion rRNA decoding site; assay: MIC, bacterial hybrid ribosomes carrying human mitochondrial rRNA decoding site; parameters: unit not given here; details: Homo sapiens mitochondrion decoding site in bacterial hybrid ribosome
Method: (§1) The recombinants carrying the respective mutational alterations in the functional rRNA operon were colony-purified and subjected to determinations of minimal inhibitory concentrations (MIC) to determine ribosomal drug susceptibility. Cultures from single colonies were grown in LB medium supplemented with 0.05% Tween 80 and used for MIC tests in a microtiter plate format. Starting cultures contained 200 μl of bacterial cells at an optical density of 0.025 at 600 nm, and the respective drug was added in twofold series of dilution.
(§2) The MIC data shown below in example 5 were obtained with bacterial hybrid ribosomes carrying human and protozoan rRNA decoding sites in a method of the invention. […] Nucleotide positions depicted in bold represent residues that are specific for the corresponding eukaryotic decoding site. The part of the human and protozoan decoding sites introduced into the bacterial ribsosome is boxed. The nucleotide positions are numbered according to the numbering of homologous positions in E. coli 16S rRNA.

[2] = tested on: bacterial hybrid ribosomes carrying Leishmania Trypanosoma rRNA decoding site; assay: MIC, bacterial hybrid ribosomes carrying protozoan rRNA decoding site; parameters: unit not given here; details: Leishmania Trypanosoma decoding site in bacterial hybrid ribosome
Method: as §1, §2

M. smegmatis = assay: MIC, M. smegmatis with bacterial rRNA decoding site; parameters: unit not given here
Method: as §1, §2

[3] = tested on: mutant bacterial cells 1408G; assay: MIC of rRNA mutants, mutant bacterial cells 1408G (human cytoplasmic nucleotide at 16S rRNA position 1408)
Method: as §1
(§3) This was illustrated by the polymorphism of 16S rRNA position 1408 and susceptibility to 4,6-aminoglycosides with a 6′ NH3 group (e.g. gentamicin, tobramycin, kanamycin). 4,6-aminoglycosides with a 6′ NH3 group bound to the ribosomal A-site encompassing nucleotides […] and selectively targeted the bacterial ribosome, but not the eukaryotic cytoplasmic ribosome. An important polymorphism in the rRNA concerns nucleotide position 1408: prokaryotic ribosomes are characterized by an adenine, eukaryotic cytoplasmic ribosomes by a guanine. Replacing the adenine by a guanine at 16S rRNA position 1408 made the bacterial ribosome completely unsusceptible towards 4,6-amino-glycosides with a 6′ NH3 group (see Table). […]

[4] = tested on: wild type bacterial cells 1408A; assay: MIC of rRNA mutants, wild type bacterial cells 1408A
Method: as §1, §3

Compound	MIC [1]	MIC [2]	MIC (M. smegmatis)	MIC, minimal inhibitory concentration ([3]; mutant bacterial cells 1408G, 72h at 37° C.) [µg/mL]	MIC, minimal inhibitory concentration ([4]; wild type bacterial cells 1408A, 72h at 37° C.) [µg/mL]	MIC ([3]; Mycolicibacterium smegmatis, CELLS1408G, 72 h, read-out: MIC, minimal inhibitory concentration) [µg/mL]	MIC ([4]; Mycolicibacterium smegmatis, 72 h, read-out: MIC, minimal inhibitory concentration) [µg/mL]
Neomycin	16-32	>1024	0.5	–	–	–	–
Gentamicin	64-128	>1024	1	>1024	1	–	–
NC[C@H]1O[C@H](O[C@H]2[C@H](O)[C@@H](O[C@H]3O[C@H](CO)[C@@H](O)[C@H](N)[C@H]3O)[C@H](N)C[C@@H]2N)[C@H](N)C[C@@H]1O [Tobramycin]	–	–	–	–	–	> 1020	2
